{
  "source": "ChEMBL document CHEMBL1201862",
  "about": "“PubChem BioAssay data set” (2004)",
  "key": {"Cytochrome P450 2C9": {"molecular_target": "Cytochrome P450 2C9 (Homo sapiens, UniProt P11712)", "sequence (P11712 whole entry)": "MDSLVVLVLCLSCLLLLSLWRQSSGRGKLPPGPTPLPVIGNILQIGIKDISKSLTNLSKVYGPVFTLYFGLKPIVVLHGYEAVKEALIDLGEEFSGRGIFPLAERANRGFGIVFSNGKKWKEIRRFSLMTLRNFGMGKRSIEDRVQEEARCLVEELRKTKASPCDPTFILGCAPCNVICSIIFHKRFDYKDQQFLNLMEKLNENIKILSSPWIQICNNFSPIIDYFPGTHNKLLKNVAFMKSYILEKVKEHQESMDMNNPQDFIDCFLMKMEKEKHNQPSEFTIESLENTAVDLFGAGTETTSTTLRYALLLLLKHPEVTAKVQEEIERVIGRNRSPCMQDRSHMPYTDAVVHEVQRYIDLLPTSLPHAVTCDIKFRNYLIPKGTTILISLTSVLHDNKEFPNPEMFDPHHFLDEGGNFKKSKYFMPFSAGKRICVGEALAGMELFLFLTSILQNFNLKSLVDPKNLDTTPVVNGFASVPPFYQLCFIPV"}, "[1]": {"molecular_target": "T1, Replicative DNA helicase DnaB (Mycobacterium tuberculosis, UniProt P9WMR3)", "T1 sequence (P9WMR3 whole entry)": "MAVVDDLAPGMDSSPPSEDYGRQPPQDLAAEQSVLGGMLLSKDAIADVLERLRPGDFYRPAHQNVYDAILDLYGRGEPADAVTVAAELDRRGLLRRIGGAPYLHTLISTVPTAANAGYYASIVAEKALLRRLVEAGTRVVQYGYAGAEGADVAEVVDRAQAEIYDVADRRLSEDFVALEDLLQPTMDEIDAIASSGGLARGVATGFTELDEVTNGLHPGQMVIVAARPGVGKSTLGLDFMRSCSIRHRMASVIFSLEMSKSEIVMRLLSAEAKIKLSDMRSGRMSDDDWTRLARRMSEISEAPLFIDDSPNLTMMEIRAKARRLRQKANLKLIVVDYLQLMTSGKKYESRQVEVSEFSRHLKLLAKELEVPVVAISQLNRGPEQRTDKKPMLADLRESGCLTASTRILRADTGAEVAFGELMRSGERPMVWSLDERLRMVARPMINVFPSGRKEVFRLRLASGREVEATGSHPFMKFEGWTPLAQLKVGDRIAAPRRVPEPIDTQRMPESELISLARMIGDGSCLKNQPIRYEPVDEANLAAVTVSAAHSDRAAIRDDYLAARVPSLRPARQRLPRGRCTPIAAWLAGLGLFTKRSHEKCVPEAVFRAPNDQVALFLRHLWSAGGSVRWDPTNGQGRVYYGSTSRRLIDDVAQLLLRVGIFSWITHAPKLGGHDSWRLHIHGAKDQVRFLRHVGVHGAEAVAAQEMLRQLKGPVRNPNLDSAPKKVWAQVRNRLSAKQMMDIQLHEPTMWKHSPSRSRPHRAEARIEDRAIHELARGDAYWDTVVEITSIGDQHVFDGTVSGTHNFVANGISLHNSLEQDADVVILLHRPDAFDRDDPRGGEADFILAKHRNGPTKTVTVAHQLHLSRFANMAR", "assay": "DnaB intein splicing inhibitors, dose response, biochemical, cell-free fluorescence (AID 449749)", "format": "functional"}, "Protein RecA": {"molecular_target": "T2, Protein RecA (Mycobacterium tuberculosis, UniProt P9WHJ3)", "T2 sequence (P9WHJ3 whole entry)": "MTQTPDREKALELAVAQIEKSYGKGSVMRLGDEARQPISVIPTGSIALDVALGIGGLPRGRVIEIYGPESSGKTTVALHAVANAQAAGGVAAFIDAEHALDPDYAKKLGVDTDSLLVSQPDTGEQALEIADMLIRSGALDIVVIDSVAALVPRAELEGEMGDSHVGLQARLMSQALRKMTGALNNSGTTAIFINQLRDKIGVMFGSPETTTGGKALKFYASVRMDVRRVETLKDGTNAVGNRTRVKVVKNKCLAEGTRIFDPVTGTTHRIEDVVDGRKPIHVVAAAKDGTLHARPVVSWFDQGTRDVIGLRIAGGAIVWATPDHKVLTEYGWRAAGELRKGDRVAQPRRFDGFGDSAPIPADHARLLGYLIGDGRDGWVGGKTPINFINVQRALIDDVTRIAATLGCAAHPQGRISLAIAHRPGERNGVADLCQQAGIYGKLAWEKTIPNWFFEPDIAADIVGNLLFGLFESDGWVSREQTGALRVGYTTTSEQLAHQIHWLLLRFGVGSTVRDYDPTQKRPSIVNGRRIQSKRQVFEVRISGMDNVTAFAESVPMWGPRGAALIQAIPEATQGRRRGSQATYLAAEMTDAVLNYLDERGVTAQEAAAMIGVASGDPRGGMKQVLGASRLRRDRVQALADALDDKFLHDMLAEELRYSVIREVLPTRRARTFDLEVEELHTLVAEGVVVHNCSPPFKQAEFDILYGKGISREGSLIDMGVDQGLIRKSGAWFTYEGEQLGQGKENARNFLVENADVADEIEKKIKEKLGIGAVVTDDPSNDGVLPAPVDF", "assay": "Fluorescence Cell-Free Homogeneous Dose Retest to Identify Inhibitors of RecA-Intein Splicing Activity. [Related pubchem assays (depositor defined):AID2097, AID2223, AID489010, AID492950]", "format": "functional"}, "Cytochrome P450 1A2": {"molecular_target": "T3, Cytochrome P450 1A2 (Homo sapiens, UniProt P05177)", "T3 sequence (P05177 whole entry)": "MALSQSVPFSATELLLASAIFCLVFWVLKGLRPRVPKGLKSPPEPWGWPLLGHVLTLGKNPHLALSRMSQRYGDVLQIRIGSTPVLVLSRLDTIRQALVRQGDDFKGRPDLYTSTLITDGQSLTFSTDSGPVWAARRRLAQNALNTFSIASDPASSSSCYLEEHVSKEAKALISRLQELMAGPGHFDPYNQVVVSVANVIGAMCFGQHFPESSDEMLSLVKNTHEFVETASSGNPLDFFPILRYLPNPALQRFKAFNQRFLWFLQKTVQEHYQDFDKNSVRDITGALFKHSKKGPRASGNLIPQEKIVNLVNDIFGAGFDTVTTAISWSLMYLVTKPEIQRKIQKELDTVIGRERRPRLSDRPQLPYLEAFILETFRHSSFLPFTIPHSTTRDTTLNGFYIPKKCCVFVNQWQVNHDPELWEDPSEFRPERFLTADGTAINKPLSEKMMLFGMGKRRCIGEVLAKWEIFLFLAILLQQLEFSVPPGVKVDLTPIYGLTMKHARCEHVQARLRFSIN"}, "[2]": {"molecular_target": "T4, Heat shock factor protein 1 (Mus musculus, UniProt P38532)", "T4 sequence (P38532 whole entry)": "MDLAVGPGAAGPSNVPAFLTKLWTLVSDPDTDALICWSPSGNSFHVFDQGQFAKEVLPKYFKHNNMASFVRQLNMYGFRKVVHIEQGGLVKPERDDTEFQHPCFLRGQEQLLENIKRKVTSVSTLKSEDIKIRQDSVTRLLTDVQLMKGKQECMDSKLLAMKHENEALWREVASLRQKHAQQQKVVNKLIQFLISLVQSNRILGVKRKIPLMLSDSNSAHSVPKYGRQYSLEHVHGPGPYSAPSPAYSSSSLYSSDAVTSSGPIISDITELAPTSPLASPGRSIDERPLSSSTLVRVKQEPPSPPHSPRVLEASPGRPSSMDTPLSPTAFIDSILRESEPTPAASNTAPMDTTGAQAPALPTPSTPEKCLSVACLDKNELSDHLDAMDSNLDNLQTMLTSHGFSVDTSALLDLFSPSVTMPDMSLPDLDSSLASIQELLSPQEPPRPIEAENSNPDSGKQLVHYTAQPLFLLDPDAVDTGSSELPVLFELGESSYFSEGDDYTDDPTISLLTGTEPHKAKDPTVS", "assay": "HSF1 potentiators in luciferase reporter cells, confirmation, cell-based, NIH3T3, luminescence, dose retest (AID 435004);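 also: stress induced by proteasome inhibitor MG132 added 30 min after compound; actives raise luminescence as potentiators of the MG132 stress response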", "format": "functional"}, "Cytochrome P450 3A4": {"molecular_target": "Cytochrome P450 3A4 (Homo sapiens, UniProt P08684)", "sequence (P08684 whole entry)": "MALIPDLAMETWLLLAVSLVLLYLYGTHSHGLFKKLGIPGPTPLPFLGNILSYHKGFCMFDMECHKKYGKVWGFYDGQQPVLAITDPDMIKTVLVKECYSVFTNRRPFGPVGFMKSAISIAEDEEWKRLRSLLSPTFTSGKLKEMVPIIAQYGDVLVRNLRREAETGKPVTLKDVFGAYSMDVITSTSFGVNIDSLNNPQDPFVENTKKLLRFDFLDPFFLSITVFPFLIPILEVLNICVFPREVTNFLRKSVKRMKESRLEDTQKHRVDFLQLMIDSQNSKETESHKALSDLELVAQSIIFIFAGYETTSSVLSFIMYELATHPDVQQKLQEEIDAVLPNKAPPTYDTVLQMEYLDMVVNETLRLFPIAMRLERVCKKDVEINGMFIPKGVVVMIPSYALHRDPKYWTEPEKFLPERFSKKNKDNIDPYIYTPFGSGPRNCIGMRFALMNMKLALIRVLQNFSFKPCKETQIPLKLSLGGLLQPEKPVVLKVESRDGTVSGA"}, "Cytochrome P450 2C19": {"molecular_target": "Cytochrome P450 2C19 (Homo sapiens, UniProt P33261)", "sequence (P33261 whole entry)": "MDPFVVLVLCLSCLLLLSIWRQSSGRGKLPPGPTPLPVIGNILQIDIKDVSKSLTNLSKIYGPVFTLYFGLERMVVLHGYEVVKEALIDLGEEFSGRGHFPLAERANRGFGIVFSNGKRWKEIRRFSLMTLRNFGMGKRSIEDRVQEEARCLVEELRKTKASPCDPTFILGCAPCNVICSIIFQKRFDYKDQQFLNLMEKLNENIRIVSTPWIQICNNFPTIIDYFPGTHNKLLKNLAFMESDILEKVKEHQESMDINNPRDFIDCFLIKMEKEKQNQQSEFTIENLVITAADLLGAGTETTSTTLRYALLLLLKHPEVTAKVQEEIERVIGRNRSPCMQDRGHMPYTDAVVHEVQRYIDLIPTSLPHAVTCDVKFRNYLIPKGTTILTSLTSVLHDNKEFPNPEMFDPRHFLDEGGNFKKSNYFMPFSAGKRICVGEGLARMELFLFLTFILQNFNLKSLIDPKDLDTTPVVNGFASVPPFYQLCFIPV", "assay": "Cytochrome panel assay with activity outcomes. Panel member name: p450-cyp2c19 Compounds with AC50 equal or less than 10 uM are considered active", "format": "functional", "conditions": "read-out: AC50"}, "[3]": {"assay": "inhibitors of intracellular T. cruzi replication, confirmation, NIH3T3 host cells, beta-gal luminescence (AID 2044);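 also: luminescent beta-galactosidase reporter signal from transgenic T. cruzi replicating inside host cells; inhibitors lower the luminescence signal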", "format": "functional, cell-based"}, "[4]": {"assay": "cytotoxicity toward NIH3T3 fibroblasts, dose response, counter-screen, cell-based, ATP luminescence, mouse fibroblasts (AID 2010);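 also: cells exposed to compound for about 90 hours before reading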", "format": "functional"}, "[5]": {"assay": "Luminescence Cell-Based Dose Retest to Confirm Inhibitors of Cancer Stem Cells. [Related pubchem assays (depositor defined):AID2717, AID2721]", "format": "functional", "conditions": "Homo sapiens"}},
  "note": "Activity calls are given as the source filed them.",
  "data": [
    {"smiles": "Cc1oc(C(C)(C)C)cc1C(=O)Nc1cccc(/C=C/C(=O)O)c1", "values": [
      {"measurement": "AC50", "setting": "Cytochrome P450 2C9", "value": "4.47 µM (inconclusive)"}
    ]},
    {"smiles": "COc1ccc(Br)cc1[C@H]1[C@H]2C=CC[C@@H](C)[C@@H]2C(=O)N1Cc1ccccc1", "values": [
      {"measurement": "AC50", "setting": "[1]", "value": "2.46 µM (active)"},
      {"measurement": "EC50", "setting": "Protein RecA", "value": "163 µM (active)"}
    ]},
    {"smiles": "Clc1ccc(CCNc2nc3ccccc3s2)cc1", "values": [
      {"measurement": "AC50", "setting": "Cytochrome P450 2C9", "value": "12.6 µM (inconclusive)"}
    ]},
    {"smiles": "O=C(CCCN1C(=O)/C(=C\\c2ccccc2)SC1=S)Nc1ccc(O)cc1C(=O)O", "values": [
      {"measurement": "AC50", "setting": "[1]", "value": "15.4 µM (active)"},
      {"measurement": "EC50", "setting": "Protein RecA", "value": "15.1 µM (active)"}
    ]},
    {"smiles": "CCC#CCOCC(=S)Nc1ccccc1", "values": [
      {"measurement": "AC50", "setting": "Cytochrome P450 1A2", "value": "15.8 µM (inconclusive)"}
    ]},
    {"smiles": "Cc1cc(-c2ccc(C(C)C)c(S(=O)(=O)NCCN3CCC(C)CC3)c2)on1", "values": [
      {"measurement": "EC50", "setting": "[2]", "value": "> 260 µM (inactive)"}
    ]},
    {"smiles": "CCc1cc2c(=O)c(-c3nc4ccccc4[nH]3)coc2cc1OC(=O)N1CCOCC1", "values": [
      {"measurement": "AC50", "setting": "Cytochrome P450 3A4", "value": "5.01 µM (inconclusive)"},
      {"measurement": "AC50", "setting": "Cytochrome P450 2C9", "value": "8.91 µM (inconclusive)"}
    ]},
    {"smiles": "COc1ccc2[nH]cc(CCNc3ccnc(-c4ccccc4Cl)n3)c2c1", "values": [
      {"measurement": "AC50", "setting": "Cytochrome P450 2C9", "value": "1 µM (inconclusive)"}
    ]},
    {"smiles": "CCNc1ncc2nc(-c3ccccc3)c(=O)n(CCOC)c2n1", "values": [
      {"measurement": "AC50", "setting": "Cytochrome P450 2C19", "value": "31.6 µM (inconclusive)"},
      {"measurement": "AC50", "setting": "Cytochrome P450 3A4", "value": "31.6 µM (inconclusive)"},
      {"measurement": "AC50", "setting": "Cytochrome P450 2C9", "value": "20 µM (inconclusive)"}
    ]},
    {"smiles": "CC(C)NC(=O)N1CC[C@@]2(CCCN(S(C)(=O)=O)C2)C1", "values": [
      {"measurement": "AC50", "setting": "Cytochrome P450 2C19", "value": "39.8 µM (inconclusive)"},
      {"measurement": "AC50", "setting": "Cytochrome P450 2C9", "value": "25.1 µM (inconclusive)"}
    ]},
    {"smiles": "N#C/C(C(=O)NCc1ccccc1)=C1/N=C(NC(=O)c2ccco2)c2ccccc21", "values": [
      {"measurement": "EC50", "setting": "[2]", "value": "> 260 µM (inactive)"}
    ]},
    {"smiles": "Cc1cc(C)c(S(=O)(=O)N2CCN(c3ccc([N+](=O)[O-])c(NCc4ccco4)c3)CC2)c(C)c1", "values": [
      {"measurement": "AC50", "setting": "Cytochrome P450 2C19", "value": "0.708 µM (inconclusive)"},
      {"measurement": "AC50", "setting": "Cytochrome P450 2C9", "value": "0.562 µM (inconclusive)"}
    ]},
    {"smiles": "CCC(C)n1c(SCC(=O)NC(=O)Nc2ccc3c(c2)OCCO3)nc2ccccc2c1=O", "note": "(stereo not given)", "values": [
      {"measurement": "EC50", "setting": "[2]", "value": "> 260 µM (inactive)"},
      {"measurement": "EC50", "setting": "[3]", "value": "2.2 µM (active)"},
      {"measurement": "EC50", "setting": "[4]", "value": "> 60 µM (not active)"}
    ]},
    {"smiles": "COCCN(C(=O)C(C)C)c1nnc(-c2ccc(C(C)(C)C)cc2)s1", "values": [
      {"measurement": "AC50", "setting": "[5]", "value": "2.42 µM (active)"}
    ]},
    {"smiles": "COCCCNC(=O)c1c(NC(=O)c2cccs2)sc2c1CCCC2", "values": [
      {"measurement": "AC50", "setting": "Cytochrome P450 2C19", "value": "4.47 µM (inconclusive)"},
      {"measurement": "AC50", "setting": "Cytochrome P450 2C9", "value": "0.562 µM (inconclusive)"}
    ]},
    {"smiles": "CCOc1ccccc1CN1CCN(Cc2cn(C)nc2-c2ccccc2)CC1CCO", "note": "(stereo not given)", "values": [
      {"measurement": "EC50", "setting": "[2]", "value": "> 260 µM (inactive)"}
    ]},
    {"smiles": "N=C(N)NS(=O)(=O)c1ccc(NC(=S)NC(=O)c2ccc(Br)cc2)cc1", "values": [
      {"measurement": "EC50", "setting": "[2]", "value": "> 260 µM (inactive)"}
    ]},
    {"smiles": "CCN(CC)C[C@@H]1CCCCN1CC(=O)N1c2ccccc2C(=O)Nc2cccnc21", "values": [
      {"measurement": "AC50", "setting": "Cytochrome P450 1A2", "value": "31.6 µM (inconclusive)"}
    ]},
    {"smiles": "CC(C)c1n[nH]c2c1C(c1cccc(OC(=O)N3CCOCC3)c1)C(C#N)=C(N)O2", "note": "(stereo not given)", "values": [
      {"measurement": "AC50", "setting": "[1]", "value": "33.4 µM (active)"},
      {"measurement": "EC50", "setting": "Protein RecA", "value": "5.8 µM (active)"}
    ]}
  ]
}
